In the NIST ThermoML archive (doi:10.1016/j.jct.2008.12.005) one finds activity coefficient data, which are given here for 16 compounds.

The nature of the data set: activity coefficient (dimensionless); of the first substance listed, at infinite dilution; xn = mol fraction of the nth substance listed. The settings on record: 101 kPa, Liquid, Chromatography, x1 = 0.

The structures appear in SMILES notation. Numbers after ± are expanded uncertainties.

On to `C#CCCCC` [1-hexyne] + CC[S+](CC)CC.O=S(=O)([N-]S(=O)(=O)C(F)(F)F)C(F)(F)F, for which the activity coefficient is, setting by setting: (298.15 K) 3.63 ± 0.25; (308.15 K) 3.62 ± 0.25; (318.15 K) 3.6 ± 0.25; (328.15 K) 3.58 ± 0.24; (338.15 K) 3.57 ± 0.24; (348.15 K) 3.56 ± 0.24. Also, the activity coefficient was 3.54 ± 0.24 (358.15 K) and 3.53 ± 0.24 (368.15 K).
Turning to `C#CCCCCCC` [1-octyne] + CC[S+](CC)CC.O=S(=O)([N-]S(=O)(=O)C(F)(F)F)C(F)(F)F, the activity coefficient runs as follows: (298.15 K) 7.87 ± 0.54; (308.15 K) 7.68 ± 0.52; (318.15 K) 7.51 ± 0.51; (328.15 K) 7.35 ± 0.5; (338.15 K) 7.2 ± 0.49; (348.15 K) 7.06 ± 0.48. For the same compound, the activity coefficient is, setting by setting: (358.15 K) 6.93 ± 0.47; (368.15 K) 6.81 ± 0.46.
On to `CCCCO` [butan-1-ol] + CC[S+](CC)CC.O=S(=O)([N-]S(=O)(=O)C(F)(F)F)C(F)(F)F, for which the activity coefficient is, setting by setting: (308.15 K) 3.32 ± 0.23; (318.15 K) 2.96 ± 0.2; (328.15 K) 2.66 ± 0.18; (338.15 K) 2.41 ± 0.16; (348.15 K) 2.2 ± 0.15; (358.15 K) 2 ± 0.14. Moreover, the activity coefficient (368.15 K) was 1.84 ± 0.12.
Regarding `Cc1ccccc1` [toluene] + CC[S+](CC)CC.O=S(=O)([N-]S(=O)(=O)C(F)(F)F)C(F)(F)F, the activity coefficient runs as follows: (298.15 K) 1.54 ± 0.1; (308.15 K) 1.56 ± 0.1; (318.15 K) 1.58 ± 0.1; (328.15 K) 1.6 ± 0.11; (338.15 K) 1.62 ± 0.11; (348.15 K) 1.63 ± 0.11. The activity coefficient by setting is: (358.15 K) 1.65 ± 0.11; (368.15 K) 1.66 ± 0.11.
As for `Cc1ccccc1C` [1,2-dimethylbenzene] + CC[S+](CC)CC.O=S(=O)([N-]S(=O)(=O)C(F)(F)F)C(F)(F)F, the activity coefficient is, setting by setting: (308.15 K) 2.05 ± 0.14; (318.15 K) 2.07 ± 0.14; (328.15 K) 2.09 ± 0.14; (338.15 K) 2.1 ± 0.14; (348.15 K) 2.12 ± 0.14; (358.15 K) 2.13 ± 0.14. In addition, the activity coefficient (368.15 K) was determined as 2.15 ± 0.15.
As for `c1ccccc1` [benzene] + CC[S+](CC)CC.O=S(=O)([N-]S(=O)(=O)C(F)(F)F)C(F)(F)F, the activity coefficient came to 1.08 ± 0.07 (298.15 K); 1.1 ± 0.07 (308.15 K); 1.11 ± 0.07 (318.15 K); 1.12 ± 0.07 (328.15 K); 1.13 ± 0.07 (338.15 K); 1.13 ± 0.07 (348.15 K). Also, the activity coefficient (358.15 K) was determined as 1.14 ± 0.07 and the activity coefficient (368.15 K) came out at 1.15 ± 0.07.
On to `COC(C)(C)C` [2-methoxy-2-methylpropane] + CC[S+](CC)CC.O=S(=O)([N-]S(=O)(=O)C(F)(F)F)C(F)(F)F, for which the activity coefficient is 2.92 ± 0.2 (298.15 K); 2.94 ± 0.2 (308.15 K); 2.96 ± 0.2 (318.15 K); 2.98 ± 0.2 (328.15 K); 3 ± 0.2 (338.15 K); 3.02 ± 0.21 (348.15 K). The activity coefficient runs as follows: (358.15 K) 3.03 ± 0.21; (368.15 K) 3.05 ± 0.21.
Regarding `C#CCCC` [1-pentyne] + CC[S+](CC)CC.O=S(=O)([N-]S(=O)(=O)C(F)(F)F)C(F)(F)F, the activity coefficient is 2.52 ± 0.17 (298.15 K); 2.52 ± 0.17 (308.15 K); 2.53 ± 0.17 (318.15 K); 2.54 ± 0.17 (328.15 K); 2.54 ± 0.17 (338.15 K); 2.55 ± 0.17 (348.15 K). Also, the activity coefficient (358.15 K) was found to be 2.55 ± 0.17 and the activity coefficient (368.15 K) came to 2.55 ± 0.17.
Turning to `C1CCCC1` [cyclopentane] + CC[S+](CC)CC.O=S(=O)([N-]S(=O)(=O)C(F)(F)F)C(F)(F)F, the activity coefficient came out at 10.8 ± 0.7 (298.15 K); 10.1 ± 0.7 (308.15 K); 9.31 ± 0.64 (318.15 K); 8.72 ± 0.59 (328.15 K); 8.17 ± 0.56 (338.15 K); 7.7 ± 0.53 (348.15 K). The activity coefficient was 7.29 ± 0.5 (358.15 K) and 6.94 ± 0.47 (368.15 K).
`CCc1ccccc1` [ethylbenzene] + CC[S+](CC)CC.O=S(=O)([N-]S(=O)(=O)C(F)(F)F)C(F)(F)F: the activity coefficient is, setting by setting: (298.15 K) 2.42 ± 0.16; (308.15 K) 2.43 ± 0.17; (318.15 K) 2.43 ± 0.17; (328.15 K) 2.44 ± 0.17; (338.15 K) 2.44 ± 0.17; (348.15 K) 2.45 ± 0.17. In addition, the activity coefficient (358.15 K) amounted to 2.45 ± 0.17 and the activity coefficient (368.15 K) is 2.45 ± 0.17.
As to `C=CCCCCC` [1-heptene] + CC[S+](CC)CC.O=S(=O)([N-]S(=O)(=O)C(F)(F)F)C(F)(F)F, the activity coefficient by setting is: (298.15 K) 18.3 ± 1.3; (308.15 K) 17.2 ± 1.2; (318.15 K) 16.1 ± 1.1; (328.15 K) 15.2 ± 1; (338.15 K) 14.4 ± 1; (348.15 K) 13.7 ± 0.9. Also, the activity coefficient runs as follows: (358.15 K) 12.9 ± 0.9; (368.15 K) 12.4 ± 0.8.
As for `CCCCCCCCC` [nonane] + CC[S+](CC)CC.O=S(=O)([N-]S(=O)(=O)C(F)(F)F)C(F)(F)F, the activity coefficient reads like this: (298.15 K) 87.2 ± 6; (308.15 K) 77.6 ± 5.3; (318.15 K) 68.6 ± 4.7; (328.15 K) 61.8 ± 4.2; (338.15 K) 55.5 ± 3.8; (348.15 K) 50.5 ± 3.5. In addition, the activity coefficient by setting is: (358.15 K) 46 ± 3.1; (368.15 K) 42.4 ± 2.9.
In the case of `CCCCCCCC` [octane] + CC[S+](CC)CC.O=S(=O)([N-]S(=O)(=O)C(F)(F)F)C(F)(F)F, the activity coefficient by setting is: (298.15 K) 59.6 ± 4.1; (308.15 K) 53.3 ± 3.7; (318.15 K) 47.9 ± 3.3; (328.15 K) 43.6 ± 3; (338.15 K) 39.6 ± 2.7; (348.15 K) 36.3 ± 2.5. The activity coefficient is, setting by setting: (358.15 K) 33.5 ± 2.3; (368.15 K) 30.8 ± 2.1.
For the compound `C1CCCCCCC1` [cyclooctane] + CC[S+](CC)CC.O=S(=O)([N-]S(=O)(=O)C(F)(F)F)C(F)(F)F, the activity coefficient (298.15 K) stood at 30.3 ± 2.1; the activity coefficient (308.15 K) was determined as 27.2 ± 1.9; the activity coefficient (318.15 K) is 24.5 ± 1.7; the activity coefficient (328.15 K) came to 22.4 ± 1.5; the activity coefficient (338.15 K) was found to be 20.4 ± 1.4; the activity coefficient (348.15 K) was determined as 18.7 ± 1.3. Besides, the activity coefficient reads like this: (358.15 K) 17.2 ± 1.2; (368.15 K) 16 ± 1.1.
As to `C#CCCCCC` [1-heptyne] + CC[S+](CC)CC.O=S(=O)([N-]S(=O)(=O)C(F)(F)F)C(F)(F)F, the activity coefficient was determined as 5.34 ± 0.36 (298.15 K); 5.28 ± 0.36 (308.15 K); 5.21 ± 0.36 (318.15 K); 5.14 ± 0.35 (328.15 K); 5.08 ± 0.35 (338.15 K); 5.04 ± 0.34 (348.15 K). In addition, the activity coefficient (358.15 K) is 4.98 ± 0.34 and the activity coefficient (368.15 K) came out at 4.93 ± 0.34.
Take `Cc1cccc(C)c1` [1,3-dimethylbenzene] + CC[S+](CC)CC.O=S(=O)([N-]S(=O)(=O)C(F)(F)F)C(F)(F)F: the activity coefficient by setting is: (308.15 K) 2.29 ± 0.16; (318.15 K) 2.31 ± 0.16; (328.15 K) 2.33 ± 0.16; (338.15 K) 2.34 ± 0.16; (348.15 K) 2.36 ± 0.16; (358.15 K) 2.38 ± 0.16. Also, the activity coefficient (368.15 K) came out at 2.39 ± 0.16.
